Experimental data from patent US7994209B2, “3-phenoxymethylpyrrolidine compounds” (Theravance, Inc., priority 2009, dated 2011).

Target: hNET (Homo sapiens, UniProt P23975)
Assay: fluorescence-based norepinephrine reuptake inhibition assay (Tsuruda et al. 2010; data indicated by an asterisk)
Type: cell-based
Design: expressed in transfected cells; host or cells: HEK-293
Conditions: NET pIC50, norepinephrine reuptake inhibition, fluorescence-based assay (values with asterisk)

Chain of hNET (P23975 whole entry): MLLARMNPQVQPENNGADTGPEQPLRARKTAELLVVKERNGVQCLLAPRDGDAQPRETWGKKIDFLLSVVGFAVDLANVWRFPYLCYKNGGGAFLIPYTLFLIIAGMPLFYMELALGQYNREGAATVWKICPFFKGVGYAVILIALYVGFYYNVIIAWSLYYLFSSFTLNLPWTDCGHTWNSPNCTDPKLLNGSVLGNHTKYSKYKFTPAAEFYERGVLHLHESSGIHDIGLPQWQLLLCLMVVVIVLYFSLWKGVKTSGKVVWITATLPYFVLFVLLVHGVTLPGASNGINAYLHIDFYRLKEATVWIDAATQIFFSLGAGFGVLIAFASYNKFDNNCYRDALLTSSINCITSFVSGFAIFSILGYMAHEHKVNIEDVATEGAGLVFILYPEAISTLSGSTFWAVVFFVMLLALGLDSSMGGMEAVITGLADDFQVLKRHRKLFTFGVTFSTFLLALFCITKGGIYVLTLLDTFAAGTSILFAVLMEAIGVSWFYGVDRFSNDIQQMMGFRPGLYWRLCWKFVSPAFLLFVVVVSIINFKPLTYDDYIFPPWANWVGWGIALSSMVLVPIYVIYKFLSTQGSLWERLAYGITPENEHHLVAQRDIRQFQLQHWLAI

IC50 [nM]	SMILES
≤ 100	CC[C@@H](Oc1ccc(Cl)cc1Cl)[C@H]1CCNC1 [Example 2-34, (S)-3-[(R)-1-(2,4-Dichlorophenoxy)propyl]pyrrolidine]

Same assay, conditions: norepinephrine reuptake inhibition, fluorescence-based assay (values with asterisk); read-out: NET pIC50 (converted)

SMILES	IC50 [nM]
CC[C@@H](Oc1ccc(Cl)c(Cl)c1)[C@H]1CCNC1 [Example 2-8, (S)-3-[(R)-1-(3,4-Dichlorophenoxy)propyl]pyrrolidine]	≤ 100
CC[C@H](Oc1cc(F)cc(Cl)c1)[C@H]1CCNC1 [Example 2-10, (S)-3-[(S)-1-(3-Chloro-5-fluorophenoxy)propyl]pyrrolidine]	≤ 10
CC[C@@H](Oc1cc(F)cc(Cl)c1)[C@H]1CCNC1 [Example 2-11, (S)-3-[(R)-1-(3-Chloro-5-fluorophenoxy)propyl]pyrrolidine]	≤ 10
CC[C@H](Oc1cc(C)c(Cl)c(C)c1)[C@H]1CCNC1 [Example 2-15, (S)-3-[(S)-1-(4-Chloro-3,5-dimethylphenoxy)propyl]pyrrolidine]	≤ 100
CC[C@H](Oc1cc(Cl)cc(OC)c1)[C@H]1CCNC1 [Example 2-20, (S)-3-[(S)-1-(3-Chloro-5-methoxyphenoxy)propyl]pyrrolidine]	≤ 100
CC[C@@H](Oc1ccccc1Cl)[C@H]1CCNC1 [Example 2-24, (S)-3-[(R)-1-(2-Chlorophenoxy)propyl]pyrrolidine]	≤ 100
CC[C@H](Oc1cccc(Cl)c1C)[C@H]1CCNC1 [Example 2-64, (S)-3-[(S)-1-(3-Chloro-2-methylphenoxy)propyl]pyrrolidine]	≤ 10
CC[C@@H](Oc1cccc(Cl)c1C)[C@H]1CCNC1 [Example 2-65, (S)-3-[(R)-1-(3-Chloro-2-methylphenoxy)propyl]pyrrolidine]	≤ 10
CC[C@@H](Oc1cccc(Cl)c1C(F)(F)F)[C@H]1CCNC1 [Example 2-74, (S)-3-[(R)-1-(3-Chloro-2-trifluoromethylphenoxy)propyl]pyrrolidine]	≤ 100
CCC[C@@H](Oc1ccc(Cl)c(Cl)c1)[C@@H]1CCNC1 [Example 4-14, (R)-3-[(R)-1-(3,4-Dichlorophenoxy)butyl]pyrrolidine]	≤ 100
CCC[C@@H](Oc1ccc(Cl)c(C)c1)[C@H]1CCNC1 [Example 4-15, (S)-3-[(R)-1-(4-Chloro-3-methylphenoxy)butyl]pyrrolidine]	≤ 100
CCC[C@H](Oc1ccc(Cl)c(C)c1)[C@H]1CCNC1 [Example 4-16, (S)-3-[(S)-1-(4-Chloro-3-methylphenoxy)butyl]pyrrolidine]	≤ 10

Other lines, results leading:

IC50 [nM]	SMILES
≤ 100	CC[C@@H](Oc1ccc(Cl)c(C)c1)[C@H]1CCNC1 [Example 2-14, (S)-3-[(R)-1-(4-Chloro-3-methylphenoxy)propyl]pyrrolidine]
≤ 10	CC[C@@H](Oc1cccc(Cl)c1Cl)[C@H]1CCNC1 [Example 2-31, (S)-3-[(R)-1-(2,3-Dichlorophenoxy)propyl]pyrrolidine]
≤ 10	CC[C@H](Oc1c(F)cc(Cl)cc1Cl)[C@H]1CCNC1 [Example 2-35, (S)-3-[(S)-1-(2,4-Dichloro-6-fluorophenoxy)propyl]pyrrolidine]
≤ 10	CC[C@@H](Oc1c(F)ccc(OC)c1Cl)[C@H]1CCNC1 [Example 2-45, (S)-3-[(R)-1-(2-Chloro-6-fluoro-3-methoxyphenoxy)propyl]pyrrolidine]
≤ 10	CC[C@H](Oc1ccc(C)c(F)c1F)[C@H]1CCNC1 [Example 2-51, (S)-3-[(S)-1-(2,3-Difluoro-4-methylphenoxy)propyl]pyrrolidine]
≤ 10	CCC[C@@H](Oc1cc(F)cc(Cl)c1)[C@H]1CCNC1 [Example 4-10, (S)-3-[(R)-1-(3-Chloro-5-fluorophenoxy)butyl]pyrrolidine]
≤ 10	CCC[C@H](Oc1cc(F)cc(Cl)c1)[C@H]1CCNC1 [Example 4-11, (S)-3-[(S)-1-(3-Chloro-5-fluorophenoxy)butyl]pyrrolidine]
≤ 100	CCC[C@@H](Oc1ccc(Cl)c(F)c1)[C@H]1CCNC1 [Example 4-17, (S)-3-[(R)-1-(4-Chloro-3-fluorophenoxy)butyl]pyrrolidine]
≤ 10	CCC[C@@H](Oc1c(Cl)ccc(Cl)c1Cl)[C@H]1CCNC1 [Example 4-26, (S)-3-[(R)-1-(2,3,6-Trichlorophenoxy)butyl]pyrrolidine]

Target: hSERT (Homo sapiens, UniProt P31645)
Assay: fluorescence-based serotonin reuptake inhibition assay (Tsuruda et al. 2010; data indicated by an asterisk)
Type: cell-based
Design: expressed in transfected cells; host or cells: HEK-293
Conditions: fluorescence-based assay (values with asterisk), read-out: SERT pIC50 (converted)

Chain of hSERT (P31645 whole entry): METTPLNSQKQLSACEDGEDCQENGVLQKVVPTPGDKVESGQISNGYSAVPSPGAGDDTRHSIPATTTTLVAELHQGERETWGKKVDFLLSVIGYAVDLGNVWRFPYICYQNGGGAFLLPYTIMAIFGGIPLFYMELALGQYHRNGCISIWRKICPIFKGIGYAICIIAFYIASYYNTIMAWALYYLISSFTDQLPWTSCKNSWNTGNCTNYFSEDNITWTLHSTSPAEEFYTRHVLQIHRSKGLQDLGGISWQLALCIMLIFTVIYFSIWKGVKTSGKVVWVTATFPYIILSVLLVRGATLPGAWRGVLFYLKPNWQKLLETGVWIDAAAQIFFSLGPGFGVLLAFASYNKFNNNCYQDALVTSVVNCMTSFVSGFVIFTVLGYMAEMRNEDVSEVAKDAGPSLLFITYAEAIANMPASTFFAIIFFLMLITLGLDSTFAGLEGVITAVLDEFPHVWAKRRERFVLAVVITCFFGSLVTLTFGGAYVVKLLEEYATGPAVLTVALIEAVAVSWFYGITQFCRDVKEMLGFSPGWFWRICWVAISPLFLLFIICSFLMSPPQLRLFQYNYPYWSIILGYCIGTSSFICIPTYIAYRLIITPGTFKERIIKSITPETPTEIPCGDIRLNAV

SMILES	IC50 [nM]
CC[C@@H](Oc1ccc(Cl)c(Cl)c1)[C@H]1CCNC1 [Example 2-8, (S)-3-[(R)-1-(3,4-Dichlorophenoxy)propyl]pyrrolidine]	≤ 10
CC[C@H](Oc1cc(F)cc(Cl)c1)[C@H]1CCNC1 [Example 2-10, (S)-3-[(S)-1-(3-Chloro-5-fluorophenoxy)propyl]pyrrolidine]	≤ 100
CC[C@@H](Oc1cc(F)cc(Cl)c1)[C@H]1CCNC1 [Example 2-11, (S)-3-[(R)-1-(3-Chloro-5-fluorophenoxy)propyl]pyrrolidine]	≤ 100
CC[C@H](Oc1cc(C)c(Cl)c(C)c1)[C@H]1CCNC1 [Example 2-15, (S)-3-[(S)-1-(4-Chloro-3,5-dimethylphenoxy)propyl]pyrrolidine]	≤ 10
CC[C@H](Oc1cc(Cl)cc(OC)c1)[C@H]1CCNC1 [Example 2-20, (S)-3-[(S)-1-(3-Chloro-5-methoxyphenoxy)propyl]pyrrolidine]	≤ 100
CC[C@@H](Oc1ccccc1Cl)[C@H]1CCNC1 [Example 2-24, (S)-3-[(R)-1-(2-Chlorophenoxy)propyl]pyrrolidine]	≤ 100
CC[C@H](Oc1cccc(Cl)c1C)[C@H]1CCNC1 [Example 2-64, (S)-3-[(S)-1-(3-Chloro-2-methylphenoxy)propyl]pyrrolidine]	≤ 10
CC[C@@H](Oc1cccc(Cl)c1C)[C@H]1CCNC1 [Example 2-65, (S)-3-[(R)-1-(3-Chloro-2-methylphenoxy)propyl]pyrrolidine]	≤ 10
CC[C@@H](Oc1cccc(Cl)c1C(F)(F)F)[C@H]1CCNC1 [Example 2-74, (S)-3-[(R)-1-(3-Chloro-2-trifluoromethylphenoxy)propyl]pyrrolidine]	≤ 10
CCC[C@@H](Oc1ccc(Cl)c(Cl)c1)[C@@H]1CCNC1 [Example 4-14, (R)-3-[(R)-1-(3,4-Dichlorophenoxy)butyl]pyrrolidine]	≤ 10
CCC[C@@H](Oc1ccc(Cl)c(C)c1)[C@H]1CCNC1 [Example 4-15, (S)-3-[(R)-1-(4-Chloro-3-methylphenoxy)butyl]pyrrolidine]	≤ 10
CCC[C@H](Oc1ccc(Cl)c(C)c1)[C@H]1CCNC1 [Example 4-16, (S)-3-[(S)-1-(4-Chloro-3-methylphenoxy)butyl]pyrrolidine]	≤ 10

Continued, values first:

IC50 [nM]	SMILES
≤ 10	CC[C@@H](Oc1ccc(Cl)c(C)c1)[C@H]1CCNC1 [Example 2-14, (S)-3-[(R)-1-(4-Chloro-3-methylphenoxy)propyl]pyrrolidine]
≤ 10	CC[C@@H](Oc1cccc(Cl)c1Cl)[C@H]1CCNC1 [Example 2-31, (S)-3-[(R)-1-(2,3-Dichlorophenoxy)propyl]pyrrolidine]
≤ 10	CC[C@@H](Oc1ccc(Cl)cc1Cl)[C@H]1CCNC1 [Example 2-34, (S)-3-[(R)-1-(2,4-Dichlorophenoxy)propyl]pyrrolidine]
≤ 10	CC[C@H](Oc1c(F)cc(Cl)cc1Cl)[C@H]1CCNC1 [Example 2-35, (S)-3-[(S)-1-(2,4-Dichloro-6-fluorophenoxy)propyl]pyrrolidine]
≤ 10	CC[C@@H](Oc1c(F)ccc(OC)c1Cl)[C@H]1CCNC1 [Example 2-45, (S)-3-[(R)-1-(2-Chloro-6-fluoro-3-methoxyphenoxy)propyl]pyrrolidine]
≤ 10	CC[C@H](Oc1ccc(C)c(F)c1F)[C@H]1CCNC1 [Example 2-51, (S)-3-[(S)-1-(2,3-Difluoro-4-methylphenoxy)propyl]pyrrolidine]
≤ 100	CCC[C@@H](Oc1cc(F)cc(Cl)c1)[C@H]1CCNC1 [Example 4-10, (S)-3-[(R)-1-(3-Chloro-5-fluorophenoxy)butyl]pyrrolidine]
≤ 100	CCC[C@H](Oc1cc(F)cc(Cl)c1)[C@H]1CCNC1 [Example 4-11, (S)-3-[(S)-1-(3-Chloro-5-fluorophenoxy)butyl]pyrrolidine]
≤ 10	CCC[C@@H](Oc1ccc(Cl)c(F)c1)[C@H]1CCNC1 [Example 4-17, (S)-3-[(R)-1-(4-Chloro-3-fluorophenoxy)butyl]pyrrolidine]
≤ 10	CCC[C@@H](Oc1c(Cl)ccc(Cl)c1Cl)[C@H]1CCNC1 [Example 4-26, (S)-3-[(R)-1-(2,3,6-Trichlorophenoxy)butyl]pyrrolidine]
